Results as given in article PMC9841523 (Journal of Medicinal Chemistry, 2022).
Where “and” joins values, the source holds several entries; their conditions need not be identical. Equal entries are not always repeated. Where two headings read alike, the source gives them in different places.

How the values were obtained:
[1] = Mouse pharmacokinetics, IP administration; format: in vivo; conditions: male Balb/c mice, 1 mg/kg IP, mean ± SD, n = 3
Procedure: Mouse Pharmacokinetic Studies. Male Balb/C mice were non-fasted on the day of dosing. PK […]
plasma were conducted using an AB Sciex Triple Quad 6500+ mass spectrometer coupled with a Waters UPLC system. Supernatants were collected by centrifugation after protein precipitation using MeCN containing internal standard (IS, D4-AEA). Supernatant was injected for LC- […]
μm) column. The LC mobile phase (A: 5 mM NH 4OAc in H 2O; B: MeCN/MeOH 50/50)

tumor p4EBP1 = experiment: Tumor PD after a single dose in the MCF-7 CDX model; format: in vivo, mice; conditions: for effect on tumor p4EBP1 levels: MCF-7 CDX, single dose (38, 40 ip; everolimus 5 mg/kg oral); for MCF-7 tumor PD: dose proportional duration of >80% p4EBP1 inhibition: single ip dose
ABL, ARG = experiment: KiNativ kinase panel; format: cell-based, human; conditions: 1 μM, MCF-7 Cells
AurA, AurB, AurC = experiment: KiNativ kinase panel; format: cell-based, human; conditions: 1 μM; MCF-7 Cells; ATP Loop; GKFGNVYLAR
CK1g1 = biological target: T1, CK1g1 (Homo sapiens, UniProt Q9HCP0); experiment: KiNativ kinase panel; format: cell-based; conditions: 1 μM, MCF-7 Cells, Lys2
T1 construct: endogenous in cells; host or cells: MCF7

CK1g1, CK1g2, CK1g3 = experiment: KiNativ kinase panel; format: cell-based, human; conditions: 1 μM, MCF-7 Cells, ATP Loop
CK1g3 = biological target: T2, CK1g3 (Homo sapiens, UniProt Q9Y6M4); experiment: KiNativ kinase panel; format: cell-based; conditions: 1 μM, MCF-7 Cells, Lys2
T2 construct: MCF7 cells were exposed to; endogenous in cells; host or cells: MCF7

EGFR = biological target: T3, EGFR (Homo sapiens, UniProt P00533); experiment: KiNativ kinase panel; format: cell-based; conditions: 1 μM, MCF-7 Cells
T3 construct: MCF7 cells were exposed to; endogenous in cells; host or cells: MCF7

EphB2 = biological target: T4, EphB2 (Homo sapiens, UniProt P29323); experiment: KiNativ kinase panel; format: cell-based; conditions: 1 μM; MCF-7 Cells; Activation Loop; FLEDDTSDPTYTSALGGKIPIR
T4 construct: MCF7 cells were exposed to; endogenous in cells; host or cells: MCF7

LOK = biological target: T5, LOK (Homo sapiens, UniProt O94804); experiment: KiNativ kinase panel; format: cell-based; conditions: 1 μM; MCF-7 Cells; Lys2; DLKAGNVLMTLEGDIR
T5 construct: endogenous in cells; host or cells: MCF7

MAP2K7 = biological target: T6, MAP2K7 (Homo sapiens, UniProt O14733); experiment: KiNativ kinase panel; format: cell-based; conditions: 1 μM; MCF-7 Cells; Lys2; DVKPSNILLDER
T6 construct: MCF7 cells were exposed to; endogenous in cells; host or cells: MCF7

MAP3K2, MAP3K3 = experiment: KiNativ kinase panel; format: cell-based, human; conditions: 1 μM; MCF-7 Cells; Lys2; DIKGANILR
MST3 = biological target: T7, MST3 (Homo sapiens, UniProt Q9Y6E0); experiment: KiNativ kinase panel; format: cell-based; conditions: 1 μM; MCF-7 Cells; Lys2; DIKAANVLLSEHGEVK
T7 construct: purchased ActivX Biosciences (KiNativ)

p38a = biological target: T8, p38a (Homo sapiens, UniProt Q16539); experiment: KiNativ kinase panel; format: cell-based; conditions: 1 μM, MCF-7 Cells
T8 construct: purchased ActivX Biosciences (KiNativ)

p70S6K, p70S6Kb = experiment: KiNativ kinase panel; format: cell-based, human; conditions: 1 μM, MCF-7 Cells, ATP Loop
PIP5K3 = biological target: T9, PIP5K3 (Homo sapiens, UniProt Q9Y2I7); experiment: KiNativ kinase panel; format: cell-based; conditions: 1 μM; MCF-7 Cells; ATP; GGKSGAAFYATEDDRFILK
T9 construct: purchased ActivX Biosciences (KiNativ)

PITSLRE = experiment: KiNativ kinase panel; format: cell-based, human; conditions: 1 μM; MCF-7 Cells; Lys2; DLKTSNLLLSHAGILK
PKCa, PKCg = experiment: KiNativ kinase panel; format: cell-based, human; conditions: 1 μM, MCF-7 Cells, Other
SMG1 = biological target: T10, SMG1 (Homo sapiens, UniProt Q96Q15); experiment: KiNativ kinase panel; format: cell-based; conditions: 1 μM, MCF-7 Cells, ATP
T10 construct: endogenous in cells; host or cells: MCF7

ULK1 = biological target: T11, ULK1 (Homo sapiens, UniProt O75385); experiment: KiNativ kinase panel; format: cell-based; conditions: 1 μM; MCF-7 Cells; Lys2; DLKPQNILLSNPAGR
T11 construct: Briefly, MCF7 cells were exposed to; endogenous in cells; host or cells: MCF7

ULK3 = biological target: T12, ULK3 (Homo sapiens, UniProt Q6PHR2); experiment: KiNativ kinase panel; format: cell-based; conditions: 1 μM, MCF-7 Cells
T12 construct: endogenous in cells; host or cells: MCF7
T12 sequence (Q6PHR2 1-472): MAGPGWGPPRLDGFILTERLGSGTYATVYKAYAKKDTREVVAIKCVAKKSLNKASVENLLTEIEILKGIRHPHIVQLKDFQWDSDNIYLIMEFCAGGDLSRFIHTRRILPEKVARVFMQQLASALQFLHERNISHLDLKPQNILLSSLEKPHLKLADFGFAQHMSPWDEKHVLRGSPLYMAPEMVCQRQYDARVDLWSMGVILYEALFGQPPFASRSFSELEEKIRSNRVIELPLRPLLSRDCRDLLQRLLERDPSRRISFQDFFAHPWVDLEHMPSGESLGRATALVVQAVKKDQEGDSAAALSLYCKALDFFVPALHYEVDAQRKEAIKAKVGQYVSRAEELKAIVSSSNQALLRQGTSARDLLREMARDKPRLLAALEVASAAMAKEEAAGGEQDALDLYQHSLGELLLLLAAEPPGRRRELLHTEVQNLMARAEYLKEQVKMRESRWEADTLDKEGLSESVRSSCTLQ

Wnk1, Wnk2 = experiment: KiNativ kinase panel; format: cell-based, human; conditions: 1 μM; MCF-7 Cells; ATP Loop; GSFKTVYK
hERG ion channel = hERG ion channel (Homo sapiens, UniProt Q12809); experiment: in vitro hERG inhibition; conditions: for inhibition of the hERG ion channel: 10 µM
hERG ion channel, sequence (Q12809 whole entry): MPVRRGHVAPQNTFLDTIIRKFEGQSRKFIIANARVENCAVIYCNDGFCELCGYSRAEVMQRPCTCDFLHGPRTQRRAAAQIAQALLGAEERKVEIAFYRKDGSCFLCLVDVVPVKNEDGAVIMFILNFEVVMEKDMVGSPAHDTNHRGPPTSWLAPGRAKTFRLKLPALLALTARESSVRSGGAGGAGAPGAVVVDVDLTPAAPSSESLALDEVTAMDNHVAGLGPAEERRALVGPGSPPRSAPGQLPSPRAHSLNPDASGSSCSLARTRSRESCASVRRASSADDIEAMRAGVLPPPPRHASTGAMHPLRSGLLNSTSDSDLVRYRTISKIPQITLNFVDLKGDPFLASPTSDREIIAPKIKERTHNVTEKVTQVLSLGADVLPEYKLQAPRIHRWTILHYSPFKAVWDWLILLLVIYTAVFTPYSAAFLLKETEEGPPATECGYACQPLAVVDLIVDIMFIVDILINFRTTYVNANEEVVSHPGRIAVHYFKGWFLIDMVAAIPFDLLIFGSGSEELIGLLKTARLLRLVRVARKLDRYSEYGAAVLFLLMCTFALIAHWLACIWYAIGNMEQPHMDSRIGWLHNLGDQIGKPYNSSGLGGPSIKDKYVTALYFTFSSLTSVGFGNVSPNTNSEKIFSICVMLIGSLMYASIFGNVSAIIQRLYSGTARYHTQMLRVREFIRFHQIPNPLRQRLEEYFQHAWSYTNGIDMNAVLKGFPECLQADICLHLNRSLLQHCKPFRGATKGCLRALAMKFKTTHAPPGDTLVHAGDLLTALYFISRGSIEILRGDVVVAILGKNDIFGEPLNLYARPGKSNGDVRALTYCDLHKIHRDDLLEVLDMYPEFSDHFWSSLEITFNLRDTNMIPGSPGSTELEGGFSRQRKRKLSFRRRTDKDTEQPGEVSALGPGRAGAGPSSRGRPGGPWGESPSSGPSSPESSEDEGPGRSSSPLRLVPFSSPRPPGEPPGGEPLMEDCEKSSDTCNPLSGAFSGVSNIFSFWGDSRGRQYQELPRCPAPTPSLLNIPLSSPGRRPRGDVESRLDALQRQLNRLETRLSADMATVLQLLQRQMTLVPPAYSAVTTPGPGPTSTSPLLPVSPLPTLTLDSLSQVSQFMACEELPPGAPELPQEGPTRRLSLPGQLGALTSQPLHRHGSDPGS

T8 sequence (Q16539 whole entry): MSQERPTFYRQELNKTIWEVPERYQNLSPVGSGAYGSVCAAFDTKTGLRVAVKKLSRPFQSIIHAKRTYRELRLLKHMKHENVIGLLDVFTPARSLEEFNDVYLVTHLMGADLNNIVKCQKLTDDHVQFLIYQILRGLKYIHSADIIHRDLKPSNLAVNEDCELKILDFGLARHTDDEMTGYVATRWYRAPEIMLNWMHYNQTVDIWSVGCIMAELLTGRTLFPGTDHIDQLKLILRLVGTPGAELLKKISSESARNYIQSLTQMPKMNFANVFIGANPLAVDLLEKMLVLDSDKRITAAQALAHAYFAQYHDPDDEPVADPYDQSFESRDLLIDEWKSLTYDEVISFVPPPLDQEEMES
T3 sequence (P00533 25-1210): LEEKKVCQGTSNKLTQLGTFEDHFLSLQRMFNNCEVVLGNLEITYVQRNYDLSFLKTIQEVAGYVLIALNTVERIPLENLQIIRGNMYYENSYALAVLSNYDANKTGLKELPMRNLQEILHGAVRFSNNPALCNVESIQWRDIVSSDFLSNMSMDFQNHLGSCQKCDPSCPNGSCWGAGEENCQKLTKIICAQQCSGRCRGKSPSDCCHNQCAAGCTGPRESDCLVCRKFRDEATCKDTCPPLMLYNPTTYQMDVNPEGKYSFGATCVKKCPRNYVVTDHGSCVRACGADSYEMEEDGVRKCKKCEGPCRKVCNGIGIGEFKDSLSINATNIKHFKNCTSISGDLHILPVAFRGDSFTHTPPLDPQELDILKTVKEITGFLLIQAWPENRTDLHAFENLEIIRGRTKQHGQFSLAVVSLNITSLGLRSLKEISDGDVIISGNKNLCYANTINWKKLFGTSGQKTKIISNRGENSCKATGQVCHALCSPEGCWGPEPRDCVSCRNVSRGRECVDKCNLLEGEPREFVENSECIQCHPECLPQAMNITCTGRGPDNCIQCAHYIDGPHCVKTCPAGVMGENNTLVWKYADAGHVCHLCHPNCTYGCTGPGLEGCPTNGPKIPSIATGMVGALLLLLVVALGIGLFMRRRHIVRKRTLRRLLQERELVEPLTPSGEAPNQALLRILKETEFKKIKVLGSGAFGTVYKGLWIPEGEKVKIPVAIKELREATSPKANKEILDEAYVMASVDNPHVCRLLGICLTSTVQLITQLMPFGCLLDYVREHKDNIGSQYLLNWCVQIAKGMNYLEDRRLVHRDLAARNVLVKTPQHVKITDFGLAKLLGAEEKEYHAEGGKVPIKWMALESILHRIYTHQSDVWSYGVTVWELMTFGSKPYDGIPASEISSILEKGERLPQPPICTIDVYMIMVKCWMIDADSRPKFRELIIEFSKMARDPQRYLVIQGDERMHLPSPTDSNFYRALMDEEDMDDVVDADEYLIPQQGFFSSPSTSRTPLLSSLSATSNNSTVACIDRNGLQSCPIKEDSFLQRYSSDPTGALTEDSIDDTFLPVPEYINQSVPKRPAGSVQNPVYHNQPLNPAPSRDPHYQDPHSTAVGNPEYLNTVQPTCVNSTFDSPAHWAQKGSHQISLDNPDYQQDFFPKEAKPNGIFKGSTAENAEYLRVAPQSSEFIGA
T1 sequence (Q9HCP0 whole entry): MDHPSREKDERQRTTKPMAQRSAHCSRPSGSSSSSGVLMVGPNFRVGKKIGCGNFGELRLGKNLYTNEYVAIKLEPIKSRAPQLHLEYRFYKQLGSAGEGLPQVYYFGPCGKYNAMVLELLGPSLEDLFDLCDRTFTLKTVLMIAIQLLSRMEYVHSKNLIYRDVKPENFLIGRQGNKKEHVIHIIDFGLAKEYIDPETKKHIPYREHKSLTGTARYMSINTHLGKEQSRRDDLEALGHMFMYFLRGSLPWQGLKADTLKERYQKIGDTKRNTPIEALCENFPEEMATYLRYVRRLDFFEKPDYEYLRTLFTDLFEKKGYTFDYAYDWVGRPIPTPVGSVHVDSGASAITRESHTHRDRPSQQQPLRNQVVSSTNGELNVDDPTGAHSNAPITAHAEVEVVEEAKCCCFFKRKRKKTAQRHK
T2 sequence (Q9Y6M4 whole entry): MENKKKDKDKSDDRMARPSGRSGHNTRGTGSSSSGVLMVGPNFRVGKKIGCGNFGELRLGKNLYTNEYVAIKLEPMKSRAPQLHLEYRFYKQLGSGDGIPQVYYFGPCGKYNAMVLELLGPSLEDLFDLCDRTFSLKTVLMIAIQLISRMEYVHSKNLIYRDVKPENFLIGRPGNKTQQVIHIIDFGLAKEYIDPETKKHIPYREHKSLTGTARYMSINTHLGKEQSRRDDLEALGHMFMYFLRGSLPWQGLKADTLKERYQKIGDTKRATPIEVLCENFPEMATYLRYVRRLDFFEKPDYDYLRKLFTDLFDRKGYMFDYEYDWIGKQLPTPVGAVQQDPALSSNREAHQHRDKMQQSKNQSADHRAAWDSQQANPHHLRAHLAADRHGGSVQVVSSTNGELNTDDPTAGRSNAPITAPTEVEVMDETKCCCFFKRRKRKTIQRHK
T4 sequence (P29323 19-1055): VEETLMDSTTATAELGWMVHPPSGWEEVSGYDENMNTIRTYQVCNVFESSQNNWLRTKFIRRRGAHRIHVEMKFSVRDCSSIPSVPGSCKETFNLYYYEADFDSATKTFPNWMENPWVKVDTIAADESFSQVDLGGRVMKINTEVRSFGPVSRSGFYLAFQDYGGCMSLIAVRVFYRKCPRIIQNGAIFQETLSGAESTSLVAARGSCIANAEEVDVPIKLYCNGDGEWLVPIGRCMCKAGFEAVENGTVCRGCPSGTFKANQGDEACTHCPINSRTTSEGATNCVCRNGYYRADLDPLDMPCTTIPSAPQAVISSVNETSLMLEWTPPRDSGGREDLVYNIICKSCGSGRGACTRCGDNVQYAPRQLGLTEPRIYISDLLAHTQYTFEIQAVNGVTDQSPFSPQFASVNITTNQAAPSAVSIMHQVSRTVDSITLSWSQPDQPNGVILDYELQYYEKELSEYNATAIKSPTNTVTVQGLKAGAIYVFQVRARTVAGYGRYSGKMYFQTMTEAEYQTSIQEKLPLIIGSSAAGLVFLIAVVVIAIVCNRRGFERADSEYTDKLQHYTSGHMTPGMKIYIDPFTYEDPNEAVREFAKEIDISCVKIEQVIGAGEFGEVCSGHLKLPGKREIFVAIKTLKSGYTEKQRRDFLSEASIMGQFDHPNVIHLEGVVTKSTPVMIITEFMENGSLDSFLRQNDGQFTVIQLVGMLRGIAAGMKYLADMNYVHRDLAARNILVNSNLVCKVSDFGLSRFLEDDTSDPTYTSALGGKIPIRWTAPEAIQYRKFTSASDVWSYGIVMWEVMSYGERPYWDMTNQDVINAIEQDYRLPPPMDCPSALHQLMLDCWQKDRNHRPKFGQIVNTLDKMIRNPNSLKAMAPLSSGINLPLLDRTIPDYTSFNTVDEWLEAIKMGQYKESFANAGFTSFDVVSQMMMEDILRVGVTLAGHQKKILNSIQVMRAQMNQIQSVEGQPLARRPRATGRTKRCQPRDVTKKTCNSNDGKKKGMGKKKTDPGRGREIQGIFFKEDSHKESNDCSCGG
T7 sequence (Q9Y6E0 whole entry): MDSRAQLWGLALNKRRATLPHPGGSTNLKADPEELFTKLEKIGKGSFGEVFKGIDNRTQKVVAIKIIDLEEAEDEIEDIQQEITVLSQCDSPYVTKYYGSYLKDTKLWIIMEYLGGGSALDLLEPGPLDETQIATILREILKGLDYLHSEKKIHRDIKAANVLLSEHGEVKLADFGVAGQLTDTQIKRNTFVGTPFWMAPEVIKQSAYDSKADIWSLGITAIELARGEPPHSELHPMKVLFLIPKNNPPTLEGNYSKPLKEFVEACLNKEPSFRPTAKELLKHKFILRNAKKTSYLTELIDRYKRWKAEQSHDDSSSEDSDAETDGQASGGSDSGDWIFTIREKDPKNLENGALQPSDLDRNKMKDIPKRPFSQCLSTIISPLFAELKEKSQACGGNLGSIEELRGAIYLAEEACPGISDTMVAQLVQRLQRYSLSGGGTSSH

Structure (SMILES): CO[C@H]1C[C@@H]2CC[C@@H](C)[C@@](O)(O2)C(=O)C(=O)N2CCCC[C@H]2C(=O)O[C@H]([C@H](C)C[C@@H]2CC[C@@H](OC(=O)NCCOCCOCCOCCOCCOCCOCCOCCOCCC(=O)N3CCc4cc(Cn5nc(-c6ccc7oc(N)nc7c6)c6c(N)ncnc65)ccc4C3)[C@H](OC)C2)C[C@@H](O)[C@H](C)/C=C(\C)[C@@H](O)[C@@H](OC)C(=O)[C@H](C)C[C@H](C)/C=C/C=C/C=C/1C [compound 38]
- AUC(0-t) ([1]; mouse, in vivo): 25.9 ± 3 µM·h
- Cmax ([1]; mouse, in vivo): 5670 ng/mL and 3.19 µM
- half-life ([1]; mouse, in vivo): 4.8 ± 0.4 h
- Tmax ([1]; mouse, in vivo, read-out: Tmax): 2 h
- effect on tumor p4EBP1 levels (tumor p4EBP1): dose-dependent, prolonged, and profound inhibition
- MCF-7 tumor PD: dose proportional duration of >80% p4EBP1 inhibition (tumor p4EBP1): 24 to 48 h
- KiNativ Kinase Panel Data (ABL, ARG; Activation Loop, […]): -3.4
- KiNativ Kinase Panel Data (ABL, ARG; Lys1, […]): -1.3
- KiNativ Kinase Panel Data (AurA, AurB, AurC): 34.8
- KiNativ Kinase Panel Data (CK1g1; […]): 4.7
- KiNativ Kinase Panel Data (CK1g1, CK1g2, CK1g3; […]): 8.9
- KiNativ Kinase Panel Data (CK1g3; […]): 13.2
- KiNativ Kinase Panel Data (EGFR; Activation Loop, […]): -1.8
- KiNativ Kinase Panel Data (EGFR; Lys1, IPVAIKELR): -7.4
- KiNativ Kinase Panel Data (EphB2): 26.5
- KiNativ Kinase Panel Data (LOK): -65.4
- KiNativ Kinase Panel Data (MAP2K7): 20.9
- KiNativ Kinase Panel Data (MAP3K2, MAP3K3): -12.6
- KiNativ Kinase Panel Data (MST3): 22.2
- KiNativ Kinase Panel Data (p38a; Lys2, DLKPSNLAVNEDCELK): -4.3
- KiNativ Kinase Panel Data (p38a; Other, QELNKTIWEVPER): -5.2
- KiNativ Kinase Panel Data (p70S6K, p70S6Kb; […]): 20.1
- KiNativ Kinase Panel Data (PIP5K3): 0.8
- KiNativ Kinase Panel Data (PITSLRE): 17.8
- KiNativ Kinase Panel Data (PKCa, PKCg; […]): -20.9
- KiNativ Kinase Panel Data (SMG1; DTVTIHSVGGTITILPTKTKPK): 0.8
- KiNativ Kinase Panel Data (SMG1; SYPYLFKGLEDLHLDER): 21.6
- KiNativ Kinase Panel Data (ULK1): -11.7
- KiNativ Kinase Panel Data (ULK3; Lys1, […]): 0.5
- KiNativ Kinase Panel Data (ULK3; Lys2, […]): 11.9
- KiNativ Kinase Panel Data (Wnk1, Wnk2): 13.6
- in vitro hERG inhibition (10 μM) (hERG ion channel): 16%
- inhibition of the hERG ion channel (hERG ion channel): low

Structure (SMILES): CO[C@H]1C[C@@H]2CC[C@@H](C)[C@@](O)(O2)C(=O)C(=O)N2CCCC[C@H]2C(=O)O[C@H]([C@H](C)C[C@@H]2CC[C@@H](OC(=O)NCCOCCOCCOCCOCCOCCOCCOCCOCCC(=O)NCCS(=O)(=O)c3ccc(C(=O)N4CCOc5ccc(-c6ccc(N)nc6)cc5C4)c(C)c3F)[C@H](OC)C2)C[C@@H](O)[C@H](C)/C=C(\C)[C@@H](O)[C@@H](OC)C(=O)[C@H](C)C[C@H](C)/C=C/C=C/C=C/1C [compound 40]
- Tmax [1]: 2.3 ± 1.5 h
- t1/2 [1]: 3.8 ± 0.6 h
- AUClast ([1]; 1 mg/kg): 8.7 ± 1.2 µM·h
- effect on tumor p4EBP1 levels (tumor p4EBP1): dose-dependent, robust, and long-lasting inhibition
- MCF-7 tumor PD: dose proportional duration of >80% p4EBP1 inhibition (tumor p4EBP1): 24 to 48 h
- KiNativ Kinase Panel Data (ABL, ARG; Activation Loop, LMTGDTYTAHAGAKFPIK): 16.3
- KiNativ Kinase Panel Data (ABL, ARG; Lys1, YSLTVAVKTLKEDTMEVEEFLK): -25.3
- KiNativ Kinase Panel Data (AurA, AurB, AurC): -3.6
- KiNativ Kinase Panel Data (CK1g1; DVKPENFLIGR): 1.3
- KiNativ Kinase Panel Data (CK1g1, CK1g2, CK1g3; KIGCGNFGELR): -7.8
- KiNativ Kinase Panel Data (CK1g3; DVKPENFLIGRPGNK): -6.6
- KiNativ Kinase Panel Data (EGFR; Activation Loop, LLGAEEKEYHAEGGKVPIK): -40.0
- KiNativ Kinase Panel Data (EGFR; Lys1, IPVAIKELR): -27.8
- KiNativ Kinase Panel Data (EphB2): 1.3
- KiNativ Kinase Panel Data (LOK): -19.4
- KiNativ Kinase Panel Data (MAP2K7): -14.8
- KiNativ Kinase Panel Data (MAP3K2, MAP3K3): -18.2
- KiNativ Kinase Panel Data (MST3): 11.0
- KiNativ Kinase Panel Data (p38a; Lys2, DLKPSNLAVNEDCELK): -6.8
- KiNativ Kinase Panel Data (p38a; Other, QELNKTIWEVPER): -1.6
- KiNativ Kinase Panel Data (p70S6K, p70S6Kb; GGYGKVFQVR): -4.7
- KiNativ Kinase Panel Data (PIP5K3): 19.9
- KiNativ Kinase Panel Data (PITSLRE): 13.7
- KiNativ Kinase Panel Data (PKCa, PKCg; NLIPMDPNGLSDPYVKLK): 31.7
- KiNativ Kinase Panel Data (SMG1; DTVTIHSVGGTITILPTKTKPK): -11.1
- KiNativ Kinase Panel Data (SMG1; SYPYLFKGLEDLHLDER): 11.7
- KiNativ Kinase Panel Data (ULK1): -15.4
- KiNativ Kinase Panel Data (ULK3; Lys1, EVVAIKCVAK): -22.8
- KiNativ Kinase Panel Data (ULK3; Lys2, NISHLDLKPQNILLSSLEKPHLK): -5.4
- KiNativ Kinase Panel Data (Wnk1, Wnk2): -3.7
- in vitro hERG inhibition (10 μM) (hERG ion channel): 6%
- inhibition of the hERG ion channel (hERG ion channel): low
